Measured values reported in PMC6382696, “Drug Repurposing: The Anthelmintics Niclosamide and Nitazoxanide Are Potent TMEM16A Antagonists That Fully Bronchodilate Airways” (Frontiers in Pharmacology, 2019).
pIC50: −log10 of the molar value. Where two headings read alike, the source gives them in different places.

Key:
hTMEM16A (abc) = target: T1, hTMEM16A (abc) (Homo sapiens, UniProt Q5XXA6, DEL476-501); assay: IonWorks Barracuda perforated patch clamp, ionomycin-activated TMEM16A inward current; format: cell-based; settings: 10 μM ionomycin, Vhold −30 mV
T1 sequence (Q5XXA6 with tags, fused parts or gaps isoform Q5XXA6-5 DEL539-564): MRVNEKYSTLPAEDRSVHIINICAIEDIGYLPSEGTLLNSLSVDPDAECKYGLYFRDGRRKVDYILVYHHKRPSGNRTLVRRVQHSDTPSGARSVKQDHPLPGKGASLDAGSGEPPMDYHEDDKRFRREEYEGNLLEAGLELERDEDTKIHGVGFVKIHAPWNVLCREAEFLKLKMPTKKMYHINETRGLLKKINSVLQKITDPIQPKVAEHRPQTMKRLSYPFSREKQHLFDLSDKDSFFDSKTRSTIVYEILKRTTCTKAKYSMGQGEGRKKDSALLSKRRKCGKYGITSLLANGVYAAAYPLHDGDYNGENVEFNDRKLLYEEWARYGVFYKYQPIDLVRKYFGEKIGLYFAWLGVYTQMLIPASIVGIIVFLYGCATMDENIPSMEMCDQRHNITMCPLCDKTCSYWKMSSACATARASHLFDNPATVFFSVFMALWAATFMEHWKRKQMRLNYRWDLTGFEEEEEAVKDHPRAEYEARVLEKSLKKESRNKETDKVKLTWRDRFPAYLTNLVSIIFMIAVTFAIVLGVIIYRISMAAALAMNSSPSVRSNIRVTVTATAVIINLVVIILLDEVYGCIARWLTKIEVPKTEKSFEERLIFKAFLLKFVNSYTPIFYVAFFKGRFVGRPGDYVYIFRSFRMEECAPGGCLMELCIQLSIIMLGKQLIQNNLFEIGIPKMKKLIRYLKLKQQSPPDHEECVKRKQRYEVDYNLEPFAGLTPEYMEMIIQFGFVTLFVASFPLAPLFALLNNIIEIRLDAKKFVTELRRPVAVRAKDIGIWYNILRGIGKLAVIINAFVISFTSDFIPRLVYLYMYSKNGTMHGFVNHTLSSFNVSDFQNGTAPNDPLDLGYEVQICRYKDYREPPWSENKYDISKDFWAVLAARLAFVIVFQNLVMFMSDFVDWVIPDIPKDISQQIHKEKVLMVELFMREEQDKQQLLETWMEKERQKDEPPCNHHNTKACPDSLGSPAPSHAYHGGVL
Description: HEK293 cells stably expressing the human TMEM16A (abc) variant and CHO cells expressing the human CFTR gene were from ChanTest. The IonWorks Barracuda (IWB) procedure and data provided are from outsourced studies performed at ChanTest (Charles River Discovery, Cleveland, OH, United States) who were blinded as to the identity of the test articles or compounds provided by Amgen. As a control, benchmark inhibitors CFTRinh-172, GlyH-101 and benzbromarone were included amongst the blinded compounds submitted and performed as expected.
For IonWorks Barracuda studies on TMEM16A compounds, in brief eight test article concentrations were applied to naïve cells (n = 4, where n = the number of replicate wells/concentration) via steel needles of a 384-channel pipettor. Each application consists of addition of 20 μl of 2X concentrated test article solution to the total 40 μl final volume of the extracellular well of the Population Patch ClampTM (PPC) planar electrode. This addition is followed by mixing (one time) of the PPC well content. Duration of exposure to each test article concentration was at least 5 min. The electrophysiology procedure used: (a) Intracellular solution containing 50 mM CsCl, 90 mM CsF, 5 mM MgCl2, 1 mM EGTA, 10 mM HEPES, adjusted to pH 7.2 with CsOH; (b) Amphotericin B for patch perforation, where 30 mg/ml stock solution of amphotericin B in DMSO is added to internal solution to final concentration of 33.3 μg/ml; (c) Extracellular solution containing HEPES-buffered physiological saline (HBPS): 137 mM NaCl, 4 mM KCl, 1.8 mM CaCl2, 1 mM MgCl2, 10 mM HEPES, 10 mM glucose, adjusted to pH 7.4 with NaOH; and (d) Ionomycin stimulation of chloride currents where 10 μM ionomycin is added to all test solutions including vehicle and positive controls. […] After establishment of a whole-cell configuration via patch perforation (∼7–10 min exposure to amphotericin B), membrane currents were recorded using the on-board patch clamp amplifiers. […]

primary human ASM cells = assay: Eact-induced calcium flux in primary human ASM cells; format: cell-based; settings: Eact 10 M (so in the source), read-out: IC50 block of Eact calcium flux
Experimental: 1.1 Measuring antagonist effects on bronchial smooth muscle cell (BSMC) pro-contractile calcium flux.
Human BSMCs were obtained from Lonza, resuspended, cultured and serum starved for 24 hours as described for the histamine membrane potential assay. Compounds and dilutions were prepared in same manner, except they were serially diluted in Assay Buffer (2 mM CaCl2, 1 mM MgCl2, 4.5 mM KCl, 155 mM NaCl, 5 mM HEPES, 10 mM glucose, pH7.4) to 4X the final concentration. A Calcium Indicator Working Solution (10 ml) was prepared by adding 1ml BD PBX Signal Enhancer (Cat# 51 -9006254) and 10 µl of BD Calcium Indicator (BD Cat# 850000 resuspended in 100% DMSO) to 9 ml Assay Buffer. Following serum starvation of the BSMCs, culture media was aspirated off and 50µl of Calcium Indicator Working Solution was added t o each well of microtiter plate. Twenty-five microliters of the 4X serially diluted compounds were then added and cells were incubated with compounds for 30 minutes at room temperature. Twenty -five microliters of a 4X histamine or methacholine solution (where 1X reflects EC 80-EC100 concentration from earlier validation of aliquot of cells from same donor) was then added and fluorescence changes were measured by a FLIPR-Tetra or internal FlashFluor instrument. In some experiments the TMEM16A opener, Eact, was used in place of histamine or methacholine.

[1] = tested on: Wnt/β-catenin transcription; settings: cited from earlier work
[2] = ref Mook et al. (2015), read-out: Mook et al. Wnt/β-catenin TopFlash (IC50)

Structure (SMILES): N#Cc1c(C(F)(F)F)cc(O)n2c1nc1ccccc12 [1PBC]
- effect on ionomycin-activated inward current at −100 mV, perforated patch clamp (hTMEM16A (abc)): robust inhibition

Structure (SMILES): CCc1oc2ccccc2c1C(=O)c1cc(Br)c(O)c(Br)c1 [Benzbromarone]
- pIC50 (primary human ASM cells): 5.70
- effect on ionomycin-activated inward current at −100 mV, perforated patch clamp (hTMEM16A (abc)): effective in blocking

Structure (SMILES): CC(C)(C)C1CCc2c(sc(NC(=O)c3ccco3)c2C(=O)O)C1 (stereo not shown) [CaCCinh-A01]
- pIC50 (primary human ASM cells): 5.15

Structure (SMILES): O=C(Nc1ccc([N+](=O)[O-])cc1)c1cc(Cl)ccc1O [Cpd 2]
- pIC50 [1, 2]: 6.00

Structure (SMILES): O=C(Nc1ccc(Cl)cc1)c1cc(Cl)ccc1O [Cpd 5]
- pIC50 [1, 2]: 5.89

Structure (SMILES): Oc1ccc(Cl)cc1Cc1cc(Cl)ccc1O [Dichlorophen]
- pIC50 (primary human ASM cells): 4.24

Structure (SMILES): O=C(Nc1ccc([N+](=O)[O-])cc1Cl)c1cc(Cl)ccc1O [Niclosamide]
- pIC50 ([1]; TOPFlash reporter assay, ref Mook et al., 2015, read-out: IC50 inhibition of Wnt/β-catenin transcription): 6.47

Structure (SMILES): O=C(O)c1cccnc1Nc1cccc(C(F)(F)F)c1 [Niflumic Acid]
- effect on ionomycin-activated inward current at −100 mV, perforated patch clamp (hTMEM16A (abc)): inhibition (not stimulation)

Structure (SMILES): CCc1c(C)nc(SCC(=O)Nc2nc(-c3ccc(OC)cc3)cs2)[nH]c1=O [T16Ainh-A01]
- pIC50 (primary human ASM cells): 4.82
